One molecule from US12291513B2, “Pyridinium derivatives made by hydrothermal synthesis for use as anolytes in electrochemical cells” (Wisconsin Alumni Research Foundation, priority 2021, dated 2025) can be followed below.

The nature of this data set: Cyclic voltammetry (formal potentials, Randles-Sevcik diffusion coefficients). The format is physicochemical. Here is the method: CV and EIS experiments were ran using a PalmSens4 potentiostat with the PSTrace software. Electrochemical experiments were performed in 1.0 M NaCl supporting electrolyte using 15 mM of active material at room temperature (18° C.). Formal potentials for the redox couples were estimated by taking the average potential between the cathodic and anodic peak. Diffusional behavior was investigated by varying the scan rate between 10-100 mV·s^−1 for the first electron reduction and 50-200 mV·s^−1 for the second electron reduction, and the diffusion constants of the reduced and oxidized states (D^R and D^O) were determined via the Randles-Sevcik equation assuming ideal reversible behavior (FIG. 12D). Potentiostatic EIS measurements were used for determination of a combined diffusional constant of the reduced and oxidized states (D^EIS) and of the standard electron kinetic rate constant (k^o). These EIS measurements were performed at the formal reduction potential (held for 30 seconds before measurement) in which the concentration of the two redox states at the electrode surface were assumed to be the same and equal to half of the initially prepared redox species concentration.
A glassy carbon working electrode (CH Instruments, 0.0707 cm^2), a saturated calomel reference electrode (SCE, CH Instruments, +0.241 V vs. SHE), and a platinum wire counter electrode were used for both CV and EIS measurements. The working electrode was polished with 1 μm, 0.3 μm, and 0.05 μm alumina slurry successively. All electrodes were rinsed with deionized water in between measurements.
CVs were taken at various scan rates in order to determine the diffusion coefficients via the Randles-Sevcik relation (Eqn. 1) where ip is the peak current in Amps, n is number of electrons transferred, F is Faraday's constant, A is electrode surface area in cm^2, C is the redox species concentration in mole·cm^−3, R is the ideal gas constant, T is temperature, D is the diffusion coefficient, and v is scan rate in V/s. The anodic peak current […] determines the diffusion coefficient of the reduced state (D^R) while the cathodic peak current (ip,a) determines the diffusion coefficient of the oxidized state (D^O). ip=0.4463n^3/2·F^3/2·A·C·R^−1/2·T^−1/2·D^1/2·v^1/2 Eqn. 1

For `C[N+](C)(C)CC(O)C[n+]1ccc(-c2cc[n+](CC(O)C[N+](C)(C)C)cc2)cc1` (centres unmarked) [Dex-Vi, bis(3-trimethylammonio-2-hydroxy)propyl viologen tetrachloride], the “first electron formal potential (E1^0)” value (15 mM in 1.0 M NaCl, 18° C.) is −0.322 V vs. SHE. Further, under “Table 1”, the “E1^0” value is reported as −0.322 V vs. SHE and the “E2^0” value is recorded as −0.699 V vs. SHE. Further, the “reduced state diffusion coefficient (D1^R)” value (first redox state, 3+ species) is 1.9×10^−6 cm^2·s^−1. Besides, the “oxidized state diffusion coefficient (D1^O)” value (first redox state, 4+ species) is 2.3×10^−6 cm^2·s^−1. Moreover, for the setting “second redox state”, the “D2^O” value was 4.0×10^−6 cm^2·s^−1 and the “D2^R” value is reported as 3.1×10^−6 cm^2·s^−1. The “second electron formal potential (E2^0)” value (vs. SHE, 15 mM in 1.0 M NaCl, 18° C.) was −0.699 V.
